# Where two headings read alike, the source gives them in different places.
# Biological target: T1, P-Rex1 DHPH domains (Homo sapiens, UniProt Q8TCU6)
# T1 construct: 100 nM EE-P-Rex1 DHPH domains (PREX-in1, compounds 2–10 and 30–128); made in house; host or cells: Sf9 cells (baculovirus)
# Assay: Liposome-based GEF activity assay, isolated P-Rex1 DHPH domains
# Format: biochemical
# Details: for remaining activity at 10 µM: 10 µM compound, 100 nM EE-P-Rex1 DHPH domains, 200 nM prenylated EE-Rac1, PREX-in1, compounds 2-10 and 30-128
# Description: Full-length N-terminally EE-tagged P-Rex1, P-Rex2, the P-Rex1 DH and DHPH domains and the P-Rex2 DH domain were produced in Sf9 cells using baculoviral transduction and were purified using anti-EE beads, as previously described. Briefly, frozen pellets from 500 ml of Sf9 culture infected with P-Rex expressing high-titre baculovirus were resuspended in ice-cold lysis Sf9-cell lysis buffer 2 (1x PBS, 1% Triton X-100, 5 mM EGTA, 1 mM EDTA, 25 mM NaF, 20 mM β-glycerophosphate, 1 mM DTT, 100 µM PMSF, 10 μg/ml each of leupeptin, pepstatin A, aprotinin and antipain) for 5 min and then ultracentrifuged at 118,000 × g for 1 h at 4°C. Supernatants were incubated with pre-washed anti-EE beads for 90 min on ice with end-over-end rotation. Beads were washed 4 times in wash buffer (2x PBS, 0.1% Triton X-100, 1 mM EGTA) and 5 times in elution buffer (1x PBS, 10% glycerol, 1 mM DTT, 1 mM EGTA, 0.01% Na azide), and protein was eluted by incubation with elution buffer containing Ac-EEYMPME peptide as described above. Protein was concentrated in a YM-100 Centricon (Millipore) at 5000 × g at 4°C. Fatty acid-free BSA and glycerol were added to final concentrations of 2 mg/ml and 50%, respectively. Protein concentration and purity were determined by coomassie staining of SDS-PAGE gels. Full-length Tiam1, expressed in and purified from Sf9 cells, was a kind gift from Angeliki Malliri, CRUK Manchester Institute, UK. The ITSN1 DHPH domains and Ect2 DHPH domains, produced in and purified from bacteria, were a kind gift from Kent Rossman, University of North Carolina, Chapel Hill, USA. The DOCK10 DHR2 domain, produced in and purified from bacteria, was a kind gift from Danni Fan, Institute of Cancer Research, London, UK. All small GTPase and GEF proteins were stored in aliquots at −80°C and were snap-frozen in liquid N2 after each use.
# Liposome-based GEF activity assays were carried out essentially as described, except that GEFs were incubated with inhibitor compounds prior to the assay. GEFs (full-length P-Rex1, P-Rex2, and Tiam1, P-Rex1 DH and DHPH domains, P-Rex2 DH domain, ITSN1 DHPH domains, ECT2 DHPH domains or DOCK10 DHR2 domain) were diluted in 20 mM HEPES (pH 7.0 at 4°C), 200 mM KCl, 10% ethylene glycerol, 1% betaine, 500 µM EGTA, 0.01% azide. […] The final 10 µl samples contained GTPase, GEF and inhibitor at concentrations as stated, in 20 mM HEPES pH 7.5, 100 mM NaCl, 1 mM MgCl2, 1 mM EGTA, 1 mM DTT, 10 mg/ml fatty acid-free BSA, liposomes consisting of phosphatidylcholine, -serine and -inositol (200 µM each), with or without 10 µM PIP3, 1 µM GTPγS and 80 nM (1 µCi) ^35S-GTPγS. Positive controls contained additionally 2 mM EDTA to induce maximal GTP-loading of the GTPase. Samples were incubated at 30°C for 10 min, and reactions were stopped by the addition of 400 µl ice-cold wash buffer (1x PBS, 1 mM EGTA, 10 mM MgCl2, 1% Triton X-100, 100 µM GTP). Small GTPases were isolated using anti-EE antibody-coupled Sepharose beads or glutathione Sepharose beads, as appropriate, by incubation on ice for 90 min with end-over-end rotation, four washes in ice-cold wash buffer and resuspension of beads in Ultima Gold scintillation fluid (Perkin Elmer). ^35S-GTPγS incorporation was assessed by scintillation counting (Packard 1600TR, Liquid Scintillation Analyser).
# T1 sequence (Q8TCU6 49-392 limits assumed): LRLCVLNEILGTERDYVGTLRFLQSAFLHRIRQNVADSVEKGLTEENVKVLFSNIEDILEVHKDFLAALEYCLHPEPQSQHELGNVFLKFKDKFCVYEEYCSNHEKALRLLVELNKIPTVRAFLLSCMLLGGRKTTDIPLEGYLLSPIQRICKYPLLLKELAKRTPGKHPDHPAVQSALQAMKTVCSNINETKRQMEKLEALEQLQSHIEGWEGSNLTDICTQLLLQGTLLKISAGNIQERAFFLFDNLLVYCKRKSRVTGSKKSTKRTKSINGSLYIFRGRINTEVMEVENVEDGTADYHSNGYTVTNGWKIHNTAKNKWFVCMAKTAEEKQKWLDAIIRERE
SMILES,remaining activity at 10 µM,"inhibition at 10 µM (100 nM DHPH domains, without PIP3, read-out: inhibition of constitutive Rac-GEF activity of isolated P-Rex1 DHPH domains)","inhibition at 10 µM (Rho-GEF selectivity panel, 200 nM GTPase, read-out: inhibition of P-Rex1 DHPH Rac-GEF activity)","IC50 (liposome-based GEF assay, 200 nM prenylated EE-Rac2 as substrate, read-out: IC50 of inhibition of P-Rex1 DHPH Rac-GEF activity)"
"COc1ccc(-c2[nH]nc3c2C(c2ccc(-c4ccc(Cl)cc4)o2)C(C#N)=C(N)O3)cc1 (centres unmarked) [PREX-in1, 6-amino-4-[5-(4-chlorophenyl)-2-furyl]-3-(4-methoxyphenyl)-2,4-dihydropyrano[2,3-c]pyrazole-5-carbonitrile]",3%,100%,> 90%,4.5 µM
CC1CCC(C(C)C)c2nn(C(=O)/C=C\c3ccccc3)c(-c3cccc4ccccc34)c21 (centres unmarked) [#10],28%,,,
